Entries after “also recorded” stand apart in the source; their conditions may differ.
Tests used:
[1] = test system: PBMC from SIV-infected rhesus macaques; type: cell-based, rhesus macaque; settings: macaques R395, R397, R416, R422
[2] = test system: CD3+CD8+ T cells from FIV-vaccinated cats; experiment: CFSE-proliferation, CD8+ T cells from FIV-vaccinated cats; type: cell-based, cat; settings: prime 1x IWV, post-second MAP boost, peptide or MAP as culture stimulant, >2 positive
From the text: (§1) FIGS. 32A and 32B. T-cell proliferation responses to FIV p24 peptide pools by vaccinated cats. […] (FIG. 32A) and CD3^+CD8^+ (FIG. 32B) T-cell proliferation responses are shown for prototype FIV-vaccinated cats. The FIV vaccinated cats were semi-inbred cats with blue, dark red, and pink/green bars from different MHC-lineage colonies. The semi-inbred cats with light pink and green bars are from the same […] lineage. Pools Fp9 and Fp14 are recognized by both HIV^+ subjects and vaccinated cats (i.e., evolutionarily conserved [EC] epitopes) but pools Fp3 and Fp4 are not recognized by HIV^+ subjects (i.e., non-EC epitopes). The IFNγ responses of these cats were either low or below the cut-off threshold of 50 SFU/1×10^6 PBMC. The peptides that stimulated the most proliferation responses: non-EC peptide Fp4-3 in pool Fp4 and EC peptide Fp14-1 in pool Fp14 were used in in vivo study below (FIG. 34).
(§2) FIGS. 33A-33C. IFNγ and T-cell proliferation responses to Fp9 and Fp14 by the FIV-vaccinated cats and FIV-infected cats. The T cells or PBMC from 32 FIV-vaccinated cats were stimulated with either Fp9 or Fp14 and evaluated for proliferation (FIG. 33A) or IFNγ (FIG. 33B) responses. In addition, the PBMC from 32 FIV-infected cats at 22-52 weeks of infection and 20 HIV-1 p24-immunized cats were tested for IFNγ responses to the same peptide pools (FIG. 33B). Three types of laboratory cats were used in these studies: semi-inbred line 1 (Semi-Inbred 1), semi-inbred line 2 (Semi-Inbred 2), and outbred cats (Outbred) from laboratory cat vendors. Semi-inbred cats have been inbred for 3-5 generations with defined feline leukocyte antigen (FLA) alleles and are divided into two FLA haplotype lines. FIV vaccine consisted of prototype dual-subtype FIV vaccine (Coleman et al. 2014). The insert in each panel defines the numbers of each type of cats as well as vaccination (Vac.) or infection (Infect.) status. The number of cat responders used varies between the analyses performed for the individual Fp14 peptides (FIG. 33C, left for IFNγ and right for proliferation).
(§3) Peptide Fp4-3 (left), peptide Fp14-1 (middle) and MAP1 [right] were culture stimulants. IL2 and IFNγ ELISpot results of >50 spot forming units (SFU/10^6 PBMC) and CFSE-proliferation of >2 are considered positive (bolded). The prime-boost vaccination induced IL2 responses in 3 of 4 cats and IFNγ response in one. Larger responses were induced by MAP1 than individual peptides in culture.

[3] = test system: CD4+ T cells from FIV-vaccinated cats; experiment: CFSE-proliferation, CD4+ T cells from FIV-vaccinated cats; type: cell-based, cat; settings: for Proliferation (CFSE^low) CD4^+ T cells: prime 1x IWV, post-second MAP boost, peptide or MAP as culture stimulant, >2 positive
From the text: as §1, §2, §3

[4] = test system: PBMC from FIV-vaccinated cats; experiment: IL2 ELISpot, PBMC from FIV-vaccinated cats (prototype vaccine, or prime plus MAP boosts); type: cell-based, cat; settings: for IL2 (SFU): prime 1x IWV, post-second MAP boost, peptide or MAP as culture stimulant, >50 positive
From the text: as §3

[5] = test system: PBMC from FIV-vaccinated cats; experiment: IFNγ ELISpot, PBMC from FIV-vaccinated cats (prototype vaccine, or prime plus MAP boosts); type: cell-based, cat; settings: for IFNγ (SFU): prime 1x IWV, post-second MAP boost, peptide or MAP as culture stimulant, >50 positive
From the text: as §3

[6] = test system: FIV infection of naïve cat PBMC; experiment: In vitro FIV enhancing/inhibitory (E/I) assay in PBMC from naïve SPF cats (RT titer); type: cell-based; settings: PBMC from naïve cats
Procedure: FIG. 35. FIV-enhancing versus inhibitory epitopes on peptides and MAPs used in pilot MAP Study. […] Abbreviation: MAP1 plus MAP2 mix (MAP1+2).
FIG. 36A and 36B. FIV/HIV-1 enhancing versus inhibitory epitopes. […] Four epitope peptides were tested in an in vivo efficacy study with prototype vaccine prime and MAP boosts against pathogenic FIV challenge (see MAP section).
To test the possibility that Fp4-3 peptide may be enhancing FIV infection, we performed an in vitro FIV enhancing/inhibitory analysis with all MAP peptides and immunogens. […]. Since MAP2 consisted of peptides FRT3-3 and FRT3-4 with a natural overlap (FIG. 34), such overlap may have blocked the enhancing activity of peptide FRT3-3 while allowing the inhibitory activity of peptide FRT3-4. […] Moreover, none of the MAP vaccinated cats had early detection or enhancement in viral load compared to the control cats. Perhaps, the strong immunity generated by the MAP2 has blocked the enhancing activity of the MAP1 when boosted together (Group 1, Table 3). To test this possibility, in vitro study is currently undergoing to evaluate whether MAP2 can block FIV enhancing activity of MAP1. Furthermore, more cats will be vaccinated with MAP 1b and MAP2 to determine the levels of cytotoxins generated to peptides Fp14-1, FRT3-3 and FRT3-4. Since these peptides have induced CTL-associated cytotoxin expression in T cells from HIV^+ subjects (FIGS. 31A-31B; FIG. 5 in (Sanou et al. 2013)), these EC peptides may also mediate their in vivo effects by inducing anti-FIV specific CTL activity.
However, only peptide Fp4-3 correlated with the in vitro enhancement induced by MAP1. Since the in vitro E/I assay uses PBMC from naïve specific pathogen free (SPF) cats, it is unlikely that the in vitro stimulation of anti-FIV CTLs occurred in the culture and eliminated the infected cells. More likely, these enhancing or inhibitory peptides induced cytokines (enhancement: IFNγ, TNFα, GM-CSF; inhibition: IFNα, IL10), chemokines (inhibition: MIP1α, MIP1β, SDF-1, RANTES), or cellular restriction factors (inhibition: Trim5α, APOBEC3g) that either enhanced or inhibited FIV/HIV-1 infection. […] IFNγ is produced during inflammatory responses to HIV-1 infection (Ipp and Zemlin 2013). Thus, high levels of antiviral cellular immune responses are needed while minimizing both non-specific and viral-specific activation of CD4^+ T cells which can enhance viral replication (Lane 2010). Removal of the enhancing epitopes on FIV and HIV-1 immunogens will be critical to produce an effective HIV-1 vaccine. To accomplish this goal, we will design a vaccine based on antiviral epitopes directed at inducing viral-specific CD4^+ CTLs, CD8^+ CTLs and polyfunctional T cells, and identifying viral enhancing epitopes to remove from vaccine candidates.

[7] = cat DVB, boost-1 MAP1b, boost-2 MAP1b
[8] = cat DVD, boost-1 MAP1, boost-2 MAP1
[9] = cat QVQ, boost-1 MAP1b, boost-2 MAP1b
[10] = cat QVW, boost-1 MAP1, boost-2 MAP1

## KWRKLVDFRELNKR [H3-4]
[1]
  reactivity of PBMC from individual infected macaques: reacted

## PTDLATLILAAPGSARVKRDQEQNTAEVKLYLK [MAP1, palmitated multiple antigenic peptide: Fp4-3/furin-sensitive-linker/Fp14-1]
[2]; [7]
  Proliferation (CFSE^low) CD8^+ T cells: [10]
[2]; [8]
  Proliferation (CFSE^low) CD8^+ T cells: [9]
[2]; [9]
  Proliferation (CFSE^low) CD8^+ T cells: [7]
[2]; [10]
  Proliferation (CFSE^low) CD8^+ T cells: [6]
[3]; [7]
  Proliferation (CFSE^low) CD4^+ T cells: [1]
[3]; [8]
  Proliferation (CFSE^low) CD4^+ T cells: [2]
[3]; [9]
  Proliferation (CFSE^low) CD4^+ T cells: [7]
[3]; [10]
  Proliferation (CFSE^low) CD4^+ T cells: [7]
[4]; [7]
  IL2 (SFU): [76] SFU/10^6 PBMC
[4]; [8]
  IL2 (SFU): [296] SFU/10^6 PBMC
[4]; [9]
  IL2 (SFU): [165] SFU/10^6 PBMC
[4]; [10]
  IL2 (SFU): [9] SFU/10^6 PBMC
[5]; [7]
  IFNγ (SFU): [0] SFU/10^6 PBMC
[5]; [8]
  IFNγ (SFU): [206] SFU/10^6 PBMC
[5]; [9]
  IFNγ (SFU): [43] SFU/10^6 PBMC
[5]; [10]
  IFNγ (SFU): [0] SFU/10^6 PBMC
[6]
  effect on in vitro FIV infection: significant enhancement

## PTDMATLIMAAPGCA [Fp4-3]
[2]; [7]
  Proliferation (CFSE^low) CD8^+ T cells: 0
[2]; [8]
  Proliferation (CFSE^low) CD8^+ T cells: 6
[2]; [9]
  Proliferation (CFSE^low) CD8^+ T cells: 0
[2]; [10]
  Proliferation (CFSE^low) CD8^+ T cells: 0
[3]
  CD4+ T-cell proliferation in FIV-vaccinated cats (in words): induced predominantly
[3]; [7]
  Proliferation (CFSE^low) CD4^+ T cells: 0
[3]; [8]
  Proliferation (CFSE^low) CD4^+ T cells: 3
[3]; [9]
  Proliferation (CFSE^low) CD4^+ T cells: 1/1
[3]; [10]
  Proliferation (CFSE^low) CD4^+ T cells: 0
[4]
  IL2 responses in PBMC from FIV-vaccinated cats (in words): induced predominantly
[4]; [7]
  IL2 (SFU): 0 SFU/10^6 PBMC
[4]; [8]
  IL2 (SFU): 95 SFU/10^6 PBMC
[4]; [9]
  IL2 (SFU): 0 SFU/10^6 PBMC
[4]; [10]
  IL2 (SFU): 0/0 SFU/10^6 PBMC
[5]
  IFNγ responses in PBMC from FIV-vaccinated cats (in words): induced predominantly; also recorded: high levels
[5]; [7]
  IFNγ (SFU): 0/0 SFU/10^6 PBMC
[5]; [8]
  IFNγ (SFU): 132 SFU/10^6 PBMC
[5]; [9]
  IFNγ (SFU): 0/0 SFU/10^6 PBMC
[5]; [10]
  IFNγ (SFU): 21 SFU/10^6 PBMC
[6]
  effect on in vitro FIV infection: significant enhancement; also recorded: significantly enhanced

## WRKLVDFRE [shorter peptide of HRT3]
[1]
  reactivity of PBMC from individual infected macaques: reacted
